From patent US20100331348A1, “TROPANE DERIVATIVES USEFUL AS PESTICIDES” (SYNGENTA CROP PROTECTION, INC., priority 2007, published 2010) come the findings set out here.

Data set [1] concerns Erysiphe graminis f.sp. tritici. Kind of data set: Erysiphe graminis f.sp. tritici (wheat powdery mildew) leaf disk assay. Format: in vivo. The note with it: Blumeria graminis, foliar, 96 h, preventive, four days after inoculation, read-out: control of fungal infection, Erysiphe graminis fsp. tritici.
In another data set the test system is Tetranychus urticae. The settings on record: foliar, 192 h, read-out: control of Tetranychus urticae.
Another data set concerns Pyricularia oryzae. The experiment in a line: whole plant or invertebrate. Format: in vivo. The settings on record: foliar, 96 h.
A further data set has as its system Aedes aegypti. The experiment in a line: Aedes aegypti (Yellow fever mosquito) larvae test. Format: in vivo. The note with it: 48 h.
In data set [2] the test system is Puccinia recondita f.sp. tritici. Kind of data set: Puccinia recondita f.sp. tritici (wheat brown rust) leaf disk assay. Format: in vivo. The settings on record: foliar, 216 h, preventive, nine days after inoculation, read-out: control of fungal infection, Puccinia recondita f.sp. tritici.
A further data set deals with Plasmopara viticola. Kind of data set: Plasmopara viticola (downy mildew of grapevine) leaf disk assay. Format: in vivo. The note with it: foliar, 168 h, preventive, seven days after inoculation, read-out: control of fungal infection, Plasmopara viticola.
In the next data set the test system is Plutella xylostella. Kind of data set: Plutella xylostella (Diamond back moth) artificial diet test. The settings on record: 120 h, read-out: control of Plutella xylostella.
Setting [3] is: read-out: control of fungal infection, Pyricularia oryzae (at least 60% list).
Setting [4] is: read-out: control of fungal infection, Pyricularia oryzae (at least 80% list).

Read-outs that look alike come from different tables or passages of the source. Some results are limits rather than exact numbers.

Compound `O=C1c2ccccc2C(=O)N1OC1C[C@H]2CC[C@@H](C1)N2c1ncnc2sccc12` (stereo partly shown) [1.73] came in with a melting point of 243 °C.

The compound `Cn1cc(C(=O)N2[C@@H]3CC[C@H]2CC(Oc2ccc(C(F)(F)F)cn2)C3)c(C(F)(F)F)c1` (stereo partly shown) [2.218] came in with a melting point of 147 °C.

Compound `Cn1cc(C(=O)N2[C@@H]3CC[C@H]2CC(Oc2ccc(C(F)(F)F)cn2)C3)c(C(F)(F)F)c1` (stereo partly shown) [2.223] registered a melting point of 153 °C.

Consider `CCc1ncnc(N2[C@@H]3CC[C@H]2CC(Oc2nc(Br)ccc2Cl)C3)c1Cl` (stereo partly shown) [Example 1.167], for which the pest or weed control at 200 ppm (in data set [1]; with Tetranychus urticae) was not below 80% throughout.

Compound `Cc1nn(C)c2nccc(N3[C@@H]4CC[C@H]3CC(Oc3ncc(Cl)cc3F)C4)c12` (stereo partly shown) [Example 1.252] displayed a melting point of 112 °C. In addition, the pest or weed control at 200 ppm in data set [1] is not below 80%. Further, the pest or weed control at 200 ppm with Pyricularia oryzae (setting [3]) was not below 60%.

In the data set on Aedes aegypti, `N#Cc1ccc(OC2C[C@H]3CC[C@@H](C2)N3c2ncnc3sccc23)cc1F` (stereo partly shown) [Example 1.259] registered a pest or weed control at 2 ppm not below 80%. Also, the pest or weed control at 200 ppm (in data set [2]; in the data set with Tetranychus urticae) was not below 80% in each case.

As to `CS(=O)(=O)OC1C[C@H]2CC[C@@H](C1)N2c1ncnc2sccc12` (stereo partly shown) [Example 2.10], the melting point amounted to 135 °C. The pest or weed control at 200 ppm in data set [1] is not below 80%.

For the compound `CCC(=O)c1ccc(OC2C[C@H]3CC[C@@H](C2)N3c2ncnc3sccc23)cc1` (stereo partly shown) [Example 2.37], the pest or weed control at 200 ppm (in data set [1]; in the data set with Tetranychus urticae) was not below 80% in each case.

With `FC(F)(F)c1ccnc(OC2C[C@H]3CC[C@@H](C2)N3c2ncnc3sccc23)c1` (stereo partly shown) [Example 2.51], the melting point stood at 172 °C. Also, the pest or weed control at 200 ppm in the data set with Pyricularia oryzae (setting [3]) was not below 60%.

In turn, `O=C1c2ccccc2C(=O)N1OC1C[C@H]2CC[C@@H](C1)N2c1ncnc2sccc12` (stereo partly shown) [Example 2.64] registered a melting point of 190 °C. Moreover, the pest or weed control at 200 ppm in data set [2] is not below 80%. Besides, in the data set with Pyricularia oryzae (setting [3]), the pest or weed control at 200 ppm was not below 60%. For the same compound, the pest or weed control at 200 ppm in the data set with Pyricularia oryzae (setting [4]) is not below 80%.

Take `FC(F)(F)c1ccnc(OC2C[C@H]3CC[C@@H](C2)N3c2ccncn2)c1` (stereo partly shown) [Example 2.87]: the melting point was found to be 108 °C. The pest or weed control at 200 ppm with Pyricularia oryzae (setting [3]) is not below 60%.

Compound `FC(F)(F)c1cccc(OC2C[C@H]3CC[C@@H](C2)N3c2cc(Cl)ncn2)n1` (stereo partly shown) [Example 2.90] showed a melting point of 136 °C. In data set [1], the pest or weed control at 200 ppm is not below 80%.

`Cc1cc(N2[C@@H]3CC[C@H]2CC(Oc2cccc(C(F)(F)F)n2)C3)n2ncnc2n1` (stereo partly shown) [Example 2.101]: the melting point came out at 212 °C. Besides, the pest or weed control at 200 ppm with Plasmopara viticola is not below 80%.

As for `Cc1nn(C)c2nccc(N3[C@@H]4CC[C@H]3CC(Oc3nc(C(F)(F)F)cs3)C4)c12` (stereo partly shown) [Example 2.107], the melting point came out at 184 °C. The pest or weed control at 200 ppm in data set [1] is not below 80%.

Regarding `Cc1noc2ncnc(N3[C@@H]4CC[C@H]3CC(Oc3cccc(C(F)(F)F)n3)C4)c12` (stereo partly shown) [Example 2.121], the melting point came out at 159 °C. In addition, the pest or weed control at 200 ppm in data set [1] is not below 80%. In addition, the pest or weed control at 200 ppm in data set [2] was not below 80%.

The compound `Cc1cc(N2[C@@H]3CC[C@H]2CC(Oc2ccc(C(F)(F)F)cn2)C3)n2ncnc2n1` (stereo partly shown) [Example 2.139] displayed a melting point of 240 °C. In addition, in data set [1], the pest or weed control at 200 ppm was not below 80%. In addition, in the data set on Pyricularia oryzae (setting [3]), the pest or weed control at 200 ppm is not below 60%.

Turning to `Cc1nn(C)c2nccc(N3[C@@H]4CC[C@H]3CC(Oc3ccc(C(F)(F)F)cn3)C4)c12` (stereo partly shown) [Example 2.194], the pest or weed control at 200 ppm in the data set on Tetranychus urticae is not below 80%.

On to `N#Cc1c(Cl)nsc1N1[C@@H]2CC[C@H]1CC(Oc1cc(C(F)(F)F)ccn1)C2` (stereo partly shown) [Example 2.196], for which the melting point is 103 °C. Further, in data set [1], the pest or weed control at 200 ppm was not below 80%.

`Cc1nsc(N2[C@@H]3CC[C@H]2CC(Oc2ccc(C(F)(F)F)cn2)C3)c1Cl` (stereo partly shown) [Example 2.199] showed a melting point of 46 °C. In addition, in data set [1], the pest or weed control at 200 ppm is not below 80%.

The compound `Cc1nsc(N2[C@@H]3CC[C@H]2CC(Oc2ccc(C(F)(F)F)cn2)C3)n1` (stereo partly shown) [Example 2.204] came in with a melting point of 169 °C. For the same compound, the pest or weed control at 200 ppm in data set [2] was not below 80%.

For `Cn1nc(C(F)(F)F)cc1C(=O)N1[C@@H]2CC[C@H]1CC(Oc1cc(C(F)(F)F)ccn1)C2` (stereo partly shown) [Example 2.217], the melting point turned out to be 122 °C. For the same compound, in data set [1], the pest or weed control at 200 ppm is not below 80%.

With `CCc1ncnc(N2C3CCC2CC(=CC#N)C3)c1Cl` [Example 3.1], the melting point is 73 °C. Further, the pest or weed control at 200 ppm in data set [2] was not below 80%.

Compound `CCOC(=O)C=C1CC2CCC(C1)N2c1ncnc2sccc12` [Example 3.34] gave a melting point of 101 °C. The pest or weed control at 200 ppm in data set [2] was not below 80%. Moreover, in the data set on Pyricularia oryzae (setting [3]), the pest or weed control at 200 ppm is not below 60%. For the same compound, in the data set on Pyricularia oryzae (setting [4]), the pest or weed control at 200 ppm was not below 80%. The pest or weed control at 200 ppm with Plasmopara viticola is not below 80%.

Compound `CCc1ncnc(C(C)c2ncnc(N3C4CCC3CC(=NO)C4)c2Cl)c1Cl` (stereo not shown) [Example 5.4] showed a melting point of 162 °C. In data set [1], the pest or weed control at 200 ppm was not below 80%.

As to `CCc1ncnc(N2C3CCC2CC(=NOCc2ccc(-c4ccccc4)cc2)C3)c1Cl` [Example 5.22], the pest or weed control at 200 ppm (in data set [1]; in data set [2]; in the data set with Tetranychus urticae) was not below 80% throughout.

For `CCc1ncnc(N2C3CCC2CC(=NOCc2ccc(OC(F)(F)F)cc2)C3)c1Cl` [Example 5.66], the pest or weed control at 200 ppm (in data set [1]; in data set [2]; in the data set on Plutella xylostella; with Tetranychus urticae) was not below 80% each time.

For the compound `CCc1ncnc(N2C3CCC2CC(=NOCc2ccc(C(F)(F)F)c(F)c2)C3)c1Cl` [Example 5.86], the pest or weed control at 200 ppm (in data set [2]; with Pyricularia oryzae (setting [4]); in the data set with Tetranychus urticae) was not below 80% in each case.

As to `CCc1ncnc(N2C3CCC2CC(=NOCc2ccc(SC(F)(F)F)cc2)C3)c1Cl` [Example 5.99], the pest or weed control at 200 ppm (in data set [1]; in data set [2]; in the data set on Tetranychus urticae) was not below 80% throughout.

On to `CC(C)(C)c1ccc(CON=C2CC3CCC(C2)N3c2ncnc3sccc23)cc1` [Example 5.167], for which the pest or weed control at 200 ppm (in data set [1]; in data set [2]; in the data set with Tetranychus urticae) was not below 80% in each case.

Regarding `FC(F)(F)c1ccc(ON=C2CC3CCC(C2)N3c2ncnc3sccc23)nc1` [Example 5.170], the pest or weed control at 200 ppm was not below 80% in data set [1], not below 80% in data set [2], not below 60% with Pyricularia oryzae (setting [3]) and not below 80% with Tetranychus urticae.

In turn, `Cc1ccc(CON=C2CC3CCC(C2)N3c2ncnc3sccc23)cc1C` [Example 5.179] showed a pest or weed control at 2 ppm with Aedes aegypti not below 80%. Also, the pest or weed control at 200 ppm was not below 80% in data set [1]; not below 80% in data set [2]; not below 60% in the data set on Pyricularia oryzae (setting [3]); not below 80% in the data set with Plutella xylostella; not below 80% in the data set on Tetranychus urticae.

For `Fc1ccc(CON=C2CC3CCC(C2)N3c2ncnc3sccc23)c(Cl)c1` [Example 5.192], the pest or weed control at 2 ppm with Aedes aegypti is not below 80%. Further, the figures for the pest or weed control at 200 ppm in the data set with Pyricularia oryzae (setting [3]), in the data set with Plutella xylostella and with Tetranychus urticae were not below 60%, not below 80% and not below 80%, respectively.

Compound `Cc1cc(C(F)(F)F)cc(ON=C2CC3CCC(C2)N3c2ncnc3sccc23)n1` [Example 5.196] yielded a melting point of 167 °C. The pest or weed control at 200 ppm in data set [1] is not below 80%. Moreover, the pest or weed control at 200 ppm in data set [2] is not below 80%.

The compound `FC(F)(F)c1cnc(ON=C2CC3CCC(C2)N3c2ncnc3sccc23)c(Cl)c1` [Example 5.207] showed a melting point of 156 °C. For the same compound, the pest or weed control at 200 ppm in data set [1] is not below 80%. In addition, the pest or weed control at 200 ppm in data set [2] was not below 80%. The pest or weed control at 200 ppm in the data set on Pyricularia oryzae (setting [3]) was not below 60%.

Regarding `Fc1cc(F)c(CON=C2CC3CCC(C2)N3c2ncnc3sccc23)cc1F` [Example 5.226], the melting point stood at 106 °C. For the same compound, the pest or weed control at 200 ppm in data set [1] was not below 80%. For the same compound, in data set [2], the pest or weed control at 200 ppm was not below 80%.

`FC(F)(F)c1ccc(-c2nc(CON=C3CC4CCC(C3)N4c3ncnc4sccc34)no2)cc1` [Example 5.260]: the pest or weed control at 200 ppm (in data set [1]; in data set [2]; in the data set on Tetranychus urticae) was not below 80% throughout.

With `Cc1nn(C)c2nccc(N3C4CCC3CC(=NOc3ncc(C(F)(F)F)cc3Cl)C4)c12` [Example 5.261], the melting point was 153 °C. In addition, the pest or weed control at 200 ppm in data set [1] is not below 80%.

For the compound `N#CCC1CC2CCC(C1)N2c1ncnc2sccc12` (stereo not shown) [Example 7.1], the pest or weed control at 200 ppm in the data set with Tetranychus urticae is not below 80%.

For `OC1(CC#Cc2ccccc2)CC2CCC(C1)N2c1ncnc2sccc12` (stereo not shown) [Example 7.15], the melting point came to 173 °C. The pest or weed control at 200 ppm in data set [2] was not below 80%.

Compound `CCc1ncnc(N2C3CCC2CC(O)(CC#C[Si](C)(C)C)C3)c1Cl` (stereo not shown) [Example 7.34] gave a melting point of 85 °C. Further, in the data set with Pyricularia oryzae (setting [3]), the pest or weed control at 200 ppm is not below 60%.

A word on the melting point: it is the temperature of the solid-liquid transition.
